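Method: 48-hour compound exposure of cells in 96-well plates, five concentrations, linear interpolation of endpoints. At the GI50, growth is halved. Definition used: TGI = concentration required for complete inhibition of growth.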
Assays:
Experiment in all cases: growth of human tumour cells (NCI), 48 h
SW-620 colon = tested on: SW-620 colon
NCI-H522 lung = tested on: NCI-H522 lung
SF-268 CNS = tested on: SF-268 CNS
SK-MEL-5 melanoma = tested on: SK-MEL-5 melanoma
A498 renal = tested on: A498 renal
786-0 renal = tested on: 786-0 renal
SF-539 CNS = tested on: SF-539 CNS
SR leukemia = tested on: SR leukemia
UACC-62 melanoma = tested on: UACC-62 melanoma
BT-549 breast = tested on: BT-549 breast

SMILES	GI50 (SW-620 colon) [µM]	TGI (SW-620 colon) [µM]	GI50 (NCI-H522 lung) [µM]	TGI (NCI-H522 lung) [µM]	GI50 (SF-268 CNS) [µM]	TGI (SF-268 CNS) [µM]	GI50 (SK-MEL-5 melanoma) [µM]	TGI (SK-MEL-5 melanoma) [µM]	GI50 (A498 renal) [µM]	TGI (A498 renal) [µM]	GI50 (786-0 renal) [µM]	TGI (786-0 renal) [µM]	GI50 (SF-539 CNS) [µM]	TGI (SF-539 CNS) [µM]	GI50 (SR leukemia) [µM]	TGI (SR leukemia) [µM]	GI50 (UACC-62 melanoma) [µM]	TGI (UACC-62 melanoma) [µM]	GI50 (BT-549 breast) [µM]	TGI (BT-549 breast) [µM]
CC(=O)O[C@@H]1C[C@]2(C(C)C)O[C@@]1(C)[C@@H]1CCC(C)=C1[C@@H]2OC(=O)/C=C/c1ccccc1	39	> 100	20.7	> 100	35.1	> 100	22.5	78.5	2.19	6.59	84.3	> 100	> 100	> 100	31.8	> 100	26.5	> 100	51.3	> 100
CCCS(=O)(=O)Nc1ccc(Nc2c3ccccc3nc3ccccc23)c(OC)c1	–	21.3	–	5.33	–	8.31	–	14.7	–	6	–	3.49	–	4.18	–	0.85	–	13.1	–	9.99
O=C(O)c1ccccc1-c1ccccc1C(=O)Nc1ccc2c(c1)Cc1cc(F)ccc1-2	–	> 100	–	63	–	> 100	–	47.2	–	46	–	> 100	–	> 100	–	48.9	–	36.8	–	40.2
CCN(CC)CCNCC(=O)Oc1ccc(/C=C/C(=O)CC(=O)/C=C/c2ccc(OC(=O)CNCCN(CC)CC)c(OC)c2)cc1OC	3.02	9.93	3.29	11.6	3.68	> 100	2.57	9.65	3.34	11.6	2.38	5.93	2.59	6.74	3.14	> 100	2.73	7.8	2.29	5.95
Nc1ccncc1/C=C1/C(=O)Nc2ccccc21	31.4	> 100	24	71.6	28	> 100	28	> 100	18.7	52.7	34.8	> 100	34.6	> 100	23.2	> 100	32.5	> 100	40.2	> 100
O=C(Nc1cccc(Cl)c1Cl)c1cccc(NC2=C(Cl)C(=O)N(Cc3ccccc3)C2=O)c1	20.1	> 100	12.6	54.7	27.7	> 100	20.1	> 100	36.1	> 100	49.8	> 100	9.87	40.6	4.16	23.5	22.2	> 100	15.7	84.5
CN1CCc2c(Sc3ccc(C(=O)NO)cc3)c3ccccc3n2C1	1.92	5.22	1.14	2.62	1.85	4.31	2.39	6.67	0.185	2.44	4.12	15.3	1.42	3.11	2.69	9.92	1.62	3.65	2.39	6.19
Cc1[nH]n(-c2cccc(Cl)c2)c(=O)c1/C=C1\C=Nc2ccc(Br)cc21	3.58	> 100	3.67	17.5	5.49	26.4	9.48	> 100	2.08	5.18	2.14	4.68	4.32	16.7	1.88	3.99	4.34	18.2	7.89	30
O=C(Nc1ccc(Cl)cc1F)c1cc(Br)ccc1O	1.46	> 36.2	0.481	9.23	0.745	9.66	0.3	1.07	0.23	0.709	2.58	7.43	0.804	7.29	0.7	> 23	0.305	1.26	0.685	3.01
Nc1nc(Nc2ccccc2)c2ncn(Cc3cc4c(cc3Br)OCO4)c2n1	0.0471	> 100	0.0316	0.207	0.128	45.3	0.0485	0.278	0.0546	29.7	0.0659	16.2	0.0394	0.51	0.0371	> 100	0.0537	28.4	0.0511	2.33
NC(=O)C(=CNc1nc(-c2ccc(Cl)c(Cl)c2)cs1)C(N)=O	> 100	> 100	11.8	> 100	71.7	> 100	71.6	> 100	> 100	> 100	> 100	> 100	46.4	> 100	38.7	> 100	> 100	> 100	> 100	> 100

From PubChem BioAssay (NCI)
